Literature values in PubChem BioAssay AID1259410 (Chemical Carcinogenesis Research Information System (CCRIS), 2018).

System: rodent tumor promotion studies, tumor incidence
Assay: CCRIS tumor promotion studies

SMILES: O=C1NC(=O)C(c2ccccc2)(c2ccccc2)N1
- outcome (Carcinogen: N,N-DIETHYLNITROSAMINE, 55-18-5, Doses [Carcinogen]: 75 MG/KG IN SALINE ONCE AT 5 WK OF AGE, Doses [Promoter]: 0, 500, 1500 PPM IN DIET FOR 45 WK BEGINNING 2 WK POST CARCINOGEN TREATMENT (STUDY DURATION: 47 WK), Doses [Promoter]: 0, 500, 1500 PPM IN DIET FOR 45 WK BEGINNING 2 WK POST CARCINOGEN TREATMENT (STUDY DURATION: 47 WK), Route [Carcinogen]: INTRAPERITONEAL, Route [Promoter]: ORAL, Species: RAT, Strain/Sex: F344/MALE): liver: hepatocellular adenoma
- outcome (Carcinogen: N,N-DIETHYLNITROSAMINE, 55-18-5, Doses [Carcinogen]: 75 MG/KG IN SALINE ONCE AT 5 WK OF AGE, Doses [Promoter]: 0, 500, 1500 PPM IN DIET FOR 46-72 WK BEGINNING 2 WK POST CARCINOGEN TREATMENT (STUDY DURATION: 46-72 WK), Doses [Promoter]: 0, 500, 1500 PPM IN DIET FOR 46-72 WK BEGINNING 2 WK POST CARCINOGEN TREATMENT (STUDY DURATION: 46-72 WK), Route [Carcinogen]: INTRAPERITONEAL, Route [Promoter]: ORAL, Species: RAT, Strain/Sex: F344/MALE): liver: hepatocellular adenoma
- outcome (Carcinogen: N-NITROSODIETHYLAMINE, 55-18-5, Doses [Carcinogen]: 90 MG/KG BW IN TRICAPRYLIN ONCE, Doses [Promoter]: 0, 500 PPM IN DIET FOR 53 WK BEGINNING 2 WK POST CARCINOGEN DOSE (STUDY DURATION: 55 WK), Route [Carcinogen]: INTRAPERITONEAL, Route [Promoter]: ORAL, Species: MOUSE, Strain/Sex: D2B6F1/MALE): liver: tumor

SMILES: O=C1NS(=O)(=O)c2ccccc21
- outcome (Carcinogen: FREEZE ULCERATION, Doses [Promoter]: 0, 5% IN DIET BEGINNING IMMEDIATELY, 2, 4, 6 OR 18 WK AFTER ULCERATION OF THE BLADDER BY FREEZING AND CONTINUING FOR DUR, Route [Promoter]: ORAL, Species: RAT, Strain/Sex: F344/MALE): urinary bladder: transitional cell carcinoma
- outcome (Carcinogen: METHYLNITROSOUREA, Doses [Carcinogen]: BLADDER IMP, Doses [Promoter]: IN DIET, Route [Carcinogen]: BLADDER IMPLANT, Route [Promoter]: ORAL, Species: RAT, Strain/Sex: WISTAR/FEMALE): urinary bladder
- outcome (Carcinogen: N-(4-(5-NITRO-2-FURYL)-2-THIAZOLYL)FORMAMIDE, 24554-26-5, Doses [Carcinogen]: 0.2% IN AIN-76A DIET FOR 4 WK, Doses [Promoter]: 0, 5% IN PROLAB DIET BEGINNING 1 WK POST CARCINOGEN TREATMENT AND CONTINUING FOR 100 WK (STUDY DURATION: 105 WK), Route [Carcinogen]: ORAL, Route [Promoter]: ORAL, Species: RAT, Strain/Sex: F344/MALE): bladder: papilloma and carcinoma
- outcome (Carcinogen: N-(4-(5-NITRO-2-FURYL)-2-THIAZOLYL)FORMAMIDE, 24554-26-5, Doses [Carcinogen]: 0.2% IN PROLAB DIET FOR 4 WK, Doses [Promoter]: 0, 5% IN PROLAB DIET BEGINNING 1 WK POST CARCINOGEN TREATMENT AND CONTINUING FOR 100 WK (STUDY DURATION: 105 WK), Route [Carcinogen]: ORAL, Route [Promoter]: ORAL, Species: RAT, Strain/Sex: F344/MALE): bladder: papilloma and carcinoma
- outcome (Carcinogen: N-(4-(5-NITRO-2-FURYL)-2-THIAZOLYL)FORMAMIDE, Doses [Carcinogen]: DIET, Doses [Promoter]: IN DIET, Route [Carcinogen]: ORAL, Route [Promoter]: ORAL, Species: RAT, Strain/Sex: F344/MALE): urinary bladder: carcinoma
- outcome (Carcinogen: N-BUTYL-N-4(HYDROXYBUTYL)NITROSAMINE, 3817-11-6, Doses [Carcinogen]: 0.05% IN DRINKING WATER FOR 2 WK, Doses [Promoter]: 0, 5% IN DIET STARTING POST CARCINOGEN AND CONTINUING FOR 22 WK, LEFT URETER LIGATED 8 D POST CARCINOGEN (STUDY DURATION, Route [Carcinogen]: ORAL, Route [Promoter]: ORAL, Species: RAT, Strain/Sex: F344/MALE): bladder: papilloma
- outcome (Carcinogen: N-BUTYL-N-(4-HYDROXYBUTYL)NITROSAMINE, 3817-11-6, Doses [Carcinogen]: 0.05% IN DRINKING WATER FOR 4 WK, Doses [Promoter]: 0, 5% IN DIET FOR 32 WK POST CARCINOGEN DOSE (STUDY DURATION: 36 WK), Route [Carcinogen]: ORAL, Route [Promoter]: ORAL, Species: RAT, Strain/Sex: F344/MALE): bladder: carcinoma or papilloma
- outcome (Carcinogen: N-[4-(5-NITRO-2-FURYL)-2-THIAZOLYL]FORMAMIDE, 24554-26-5, Doses [Carcinogen]: 0.2% IN DIET FOR 6 WK, Doses [Promoter]: 0, 5% IN PROLAB DIET FOR 72 WK BEGINNING POST CARCINOGEN TREATMENT (STUDY DURATION: 78 WK), Route [Carcinogen]: ORAL, Route [Promoter]: ORAL, Species: RAT, Strain/Sex: F344/MALE): urinary bladder: carcinoma, carcinoma or papilloma
- outcome (Carcinogen: N-[4-(5-NITRO-2-FURYL)-2-THIAZOLYL]FORMAMIDE, Doses [Carcinogen]: 0.2% IN DIET FOR 6 WK, Doses [Promoter]: 0, 3% IN PROLAB DIET FOR 72 WK BEGINNING POST CARCINOGEN TREATMENT (STUDY DURATION: 78 WK), Route [Carcinogen]: ORAL, Route [Promoter]: ORAL, Species: RAT, Strain/Sex: F344/MALE): urinary bladder: carcinoma, carcinoma or papilloma

SMILES: O=c1cc[nH]c(=O)[nH]1
- outcome (Carcinogen: N-ETHYL-N-HYDROXYETHYLNITROSAMINE, 13147-25-6, Doses [Carcinogen]: 0.05% IN DRINKING WATER FOR 3 WK, Doses [Promoter]: 0, 3% IN DIET FOR 3 WK ADMINISTERED SIMULTANEOUSLY WITH CARCINOGEN (STUDY DURATION: 52 WK), Route [Carcinogen]: ORAL, Route [Promoter]: ORAL, Species: RAT, Strain/Sex: F344/FEMALE): kidney: adenocarcinoma
- outcome (Carcinogen: N-METHYL-N-NITROSOUREA, 684-93-5, Doses [Carcinogen]: 20 MG/KG 2/WK FOR 4 WK, Doses [Promoter]: 0, 3% IN DIET FOR 20 WK BEGINNING POST LAST CARCINOGEN DOSE (STUDY DURATION: 24 WK), Route [Carcinogen]: INTRAPERITONEAL, Route [Promoter]: ORAL, Species: RAT, Strain/Sex: F344/MALE): urinary bladder: carcinoma

SMILES: C[C@]12CC[C@@H]3c4ccc(O)cc4CC[C@H]3[C@@H]1CCC2=O
- outcome (Carcinogen: N-METHYL-N-NITROSOUREA, 684-93-5, Doses [Carcinogen]: 1 MG/100 G BW INJECTED INTO LEFT UTERINE TUBE ONCE, Doses [Promoter]: 0, 25 PPM IN DIET BEGINNING 1 WK POST CARCINOGEN TREATMENT (STUDY DURATION: 30 WK), Route [Carcinogen]: INJECTION, Route [Promoter]: ORAL, Species: MOUSE, Strain/Sex: ICR/FEMALE): uterus (left): adenocarcinoma

SMILES: CCCCN(CCCCO)N=O
- outcome (Carcinogen: DIETHYLNITROSAMINE, 55-18-5, N-METHYLNITROSOUREA, 684-93-5, DIHYDROXY-DI-N- PROPYLNITRASAMINE, 53609-64-6, Carcinogen: DIETHYLNITROSAMINE, 55-18-5, N-METHYLNITROSOUREA, 684-93-5, DIHYDROXY-DI-N- PROPYLNITRASAMINE, 53609-64-6, Doses [Carcinogen]: 100 MG/KG/BW DEN ONCE AT BEGINNING OF STUDY THEN 20 MG/KG/BW MNU ONCE ON D 2, 5, 8 AND 11 OF STUDY FOLLOWED BY 0.1% DHPN, Doses [Promoter]: 0, 0.1% IN DRINKING WATER BEGINNING POST CARCINOGEN TREATMENT AND CONTINUING FOR DURATION OF STUDY (STUDY DURATION: 20 W, Route [Carcinogen]: INTRAPERITONEAL, INTRAPERITONEAL, ORAL, Route [Carcinogen]: INTRAPERITONEAL, INTRAPERITONEAL, ORAL, Route [Promoter]: ORAL, Species: RAT, Strain/Sex: F344/MALE): urinary bladder: transitional cell papilloma
- outcome (Carcinogen: N-BIS(2-HYDROXYPROPYL)NITROSAMINE, 53609-64-6, N-ETHYL-N-HYDROXYETHYLNITROSAMINE, 13147-25-6, 3,2'-DIMETHYL-4-AMINOB, Carcinogen: N-BIS(2-HYDROXYPROPYL)NITROSAMINE, 53609-64-6, N-ETHYL-N-HYDROXYETHYLNITROSAMINE, 13147-25-6, 3,2'-DIMETHYL-4-AMINOB, Doses [Carcinogen]: 1000 MG/KG IP IN SALINE ON DAY 1 AND 4, 1500 MG/KG IG IN DISTILLED WATER ON DAY 8 AND 11, 75 MG/KG SC IN CORN OIL ON D, Doses [Carcinogen]: 1000 MG/KG IP IN SALINE ON DAY 1 AND 4, 1500 MG/KG IG IN DISTILLED WATER ON DAY 8 AND 11, 75 MG/KG SC IN CORN OIL ON D, Doses [Promoter]: 0, 0.1% IN DRINKING WATER BEGINNING 1 WK POST LAST CARCINOGEN DOSE AND CONTINUING FOR 12 WK (STUDY DURATION: 16 WK), Route [Carcinogen]: INTRAPERITONEAL, GAVAGE, SUBCUTANEOUS, Route [Carcinogen]: INTRAPERITONEAL, GAVAGE, SUBCUTANEOUS, Route [Promoter]: ORAL, Species: RAT, Strain/Sex: F344/MALE): urinary bladder: tumor

SMILES: O=C1C=CC(=O)c2ccccc21
- outcome (Carcinogen: 7,12-DIMETHYLBENZ[A]ANTHRACENE, 57-97-6, Doses [Carcinogen]: 25 NMOL IN 0.2 ML ACETONE ONCE, Doses [Promoter]: 440, 880, 1760 NMOL/MOUSE 1/WK FOR 30 WK BEGINNING 2 WK POST CARCINOGEN DOSE (STUDY DURATION: 32 WK), Doses [Promoter]: 440, 880, 1760 NMOL/MOUSE 1/WK FOR 30 WK BEGINNING 2 WK POST CARCINOGEN DOSE (STUDY DURATION: 32 WK), Route [Carcinogen]: DERMAL, Route [Promoter]: DERMAL, Species: MOUSE, Strain/Sex: SENCAR/FEMALE): skin: papilloma

SMILES: CC(C)(Oc1ccc(Cl)cc1)C(=O)O
- outcome (Carcinogen: Diethylnitrosamine (DEN), 55-18-5, Doses [Carcinogen]: 30 mg/kg, single injection 12 d before initial administration of clofibrate, Doses [Promoter]: 0.5% in diet for up to 12 or 20 mo, Route [Carcinogen]: Intraperitoneal, Route [Promoter]: Oral, Species: Rat, Strain/Sex: F344/Male (175 divided into 4 groups, Vehicle control, DEN, DEN + clofibrate, and clofibrate)): liver: den injection accelerated the appearance of tumors without detectably mod

SMILES: CCCCCCCCCCCCO
- outcome (Carcinogen: 7,12-DIMETHYLBENZ(A)ANTHRACENE, Doses [Carcinogen]: TOP, Route [Carcinogen]: DERMAL, Route [Promoter]: DERMAL, Species: MOUSE, Strain/Sex: FEMALE): integumentary system (skin)
